According to ChEMBL document CHEMBL4819064, “Discovery of new pyrimidopyrrolizine/indolizine-based derivatives as P-glycoprotein inhibitors: Design, synthesis, cytotoxicity, and MDR reversal activities” (Eur J Med Chem, 2021):

Assays:
[1] = tested on: NCI/ADR-RES; experiment: Synergistic cytotoxicity against human MCF7/ADR cells assessed as combination index at 0.25 uM after 72 hrs in presence of 0.25 uM doxorubicin by MTT assay; format: functional
[2] = tested on: NCI/ADR-RES; experiment: Synergistic cytotoxicity against human MCF7/ADR cells assessed as combination index at 0.5 uM after 72 hrs in presence of 0.5 uM doxorubicin by MTT assay; format: functional
[3] = Selectivity index, ratio of IC50 for human MRC5 cells to IC50 for human A2780 cells; format: toxicity; conditions: MRC5 cells versus A2780 cells, read-out: Ratio IC50
[4] = biological target: T1, ATP-dependent translocase ABCB1 (Homo sapiens, UniProt P08183); experiment: Inhibition of P-gp in human MCF7/ADR cells assessed as increase in Rho123 accumulation measured after 2 hrs by flow cytometry; format: cell-based; conditions: nci/adr-res
T1 sequence (P08183 whole entry): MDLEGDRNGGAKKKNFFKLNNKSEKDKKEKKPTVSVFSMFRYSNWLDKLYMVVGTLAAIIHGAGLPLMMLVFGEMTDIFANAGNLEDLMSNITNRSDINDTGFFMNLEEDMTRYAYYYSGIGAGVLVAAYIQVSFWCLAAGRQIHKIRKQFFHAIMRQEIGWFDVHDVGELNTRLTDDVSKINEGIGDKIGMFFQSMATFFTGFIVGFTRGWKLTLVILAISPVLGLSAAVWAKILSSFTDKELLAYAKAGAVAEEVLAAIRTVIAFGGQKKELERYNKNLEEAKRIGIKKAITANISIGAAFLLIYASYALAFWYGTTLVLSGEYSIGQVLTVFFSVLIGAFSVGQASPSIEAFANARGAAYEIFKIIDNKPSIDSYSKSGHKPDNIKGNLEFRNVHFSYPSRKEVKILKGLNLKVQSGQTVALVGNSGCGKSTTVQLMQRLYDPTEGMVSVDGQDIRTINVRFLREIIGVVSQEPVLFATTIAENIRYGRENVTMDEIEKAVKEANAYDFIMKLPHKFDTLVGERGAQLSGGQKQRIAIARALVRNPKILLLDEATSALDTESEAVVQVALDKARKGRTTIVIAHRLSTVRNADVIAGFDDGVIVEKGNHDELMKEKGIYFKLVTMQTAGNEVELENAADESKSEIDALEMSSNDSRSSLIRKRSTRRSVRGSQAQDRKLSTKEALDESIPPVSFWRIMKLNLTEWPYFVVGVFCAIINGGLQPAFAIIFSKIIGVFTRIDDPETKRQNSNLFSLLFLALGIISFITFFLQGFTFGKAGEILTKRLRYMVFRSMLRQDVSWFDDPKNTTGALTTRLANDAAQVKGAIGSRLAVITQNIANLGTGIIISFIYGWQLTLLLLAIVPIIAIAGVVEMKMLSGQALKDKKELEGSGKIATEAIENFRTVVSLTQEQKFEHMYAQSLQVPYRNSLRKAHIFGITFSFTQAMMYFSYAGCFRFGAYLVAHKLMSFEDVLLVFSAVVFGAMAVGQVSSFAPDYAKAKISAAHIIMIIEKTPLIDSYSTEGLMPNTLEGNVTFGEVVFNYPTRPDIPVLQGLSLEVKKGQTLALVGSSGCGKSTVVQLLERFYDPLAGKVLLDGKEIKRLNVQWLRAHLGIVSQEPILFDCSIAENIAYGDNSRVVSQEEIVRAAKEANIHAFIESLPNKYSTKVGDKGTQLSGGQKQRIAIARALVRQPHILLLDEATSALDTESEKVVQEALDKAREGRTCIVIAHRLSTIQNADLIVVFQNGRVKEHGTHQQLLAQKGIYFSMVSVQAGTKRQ

[5] = tested on: HT-29; experiment: Cytotoxicity against human HT29 cells assessed as reduction in cell viability incubated for 72 hrs by MTT assay; conditions: HT-29, 72 h
[6] = tested on: MCF7; experiment: Induction of apoptosis in human MCF7 cells assessed as late apoptotic cells at 0.5 uM after 72 hrs by Annexin V-FITC/propidium iodide staining-based flow cytometric analysis (reference value: 2.8 %); format: functional
[7] = tested on: NCI/ADR-RES; experiment: Synergistic cytotoxicity against human MCF7/ADR cells assessed as combination index at 1 uM after 72 hrs in presence of 0.5 uM doxorubicin by MTT assay; format: functional
[8] = tested on: MCF7; experiment: Cell cycle arrest in human MCF7 cells assessed as accumulation at pre-G1 phase at 0.250 uM incubated for 72 hrs by PI staining based flow cytometric analysis (reference value: 1.6 +/- 0.2 %); format: functional; conditions: dose 0.25 µM
[9] = tested on: MCF7; experiment: Induction of apoptosis in human MCF7 cells assessed as viable cells at 0.125 uM after 72 hrs by Annexin V-FITC/propidium iodide staining-based flow cytometric analysis (reference value: 86.4 %); format: functional; conditions: read-out: Activity
[10] = tested on: NCI/ADR-RES; experiment: Cytotoxicity against human MCF7/ADR cells assessed as reduction in cell viability incubated for 72 hrs in presence of doxorubicin by MTT assay; format: functional, cell-based
[11] = tested on: MCF7; experiment: Induction of apoptosis in human MCF7 cells assessed as viable cells at 0.5 uM after 72 hrs by Annexin V-FITC/propidium iodide staining-based flow cytometric analysis (reference value: 86.4 %); format: functional; conditions: read-out: Activity
[12] = tested on: MCF7; experiment: Cell cycle arrest in human MCF7 cells assessed as accumulation at G1 phase at 0.250 uM incubated for 72 hrs by PI staining based flow cytometric analysis (reference value: 56.9 +/- 5.6 %); format: functional; conditions: dose 0.25 µM
[13] = tested on: MCF7; experiment: Cell cycle arrest in human MCF7 cells assessed as accumulation at G2/M phase at 0.125 uM incubated for […] staining based flow cytometric analysis (reference value: 15 +/- 1.5 %); format: functional
[14] = biological target: T1, ATP-dependent translocase ABCB1; experiment: Inhibition of P-gp activity in human MCF7/ADR cells at 1000 nM after 72 hrs by RT-PCR analysis relative to control; format: cell-based, NCI/ADR-RES; conditions: nci/adr-res, 72 h, 1 µM

N#Cc1c2n(c3c(=O)n(-c4ccccc4)cnc13)CCCC2
CI [1]: 0.927
CI [2]: 1.7
selectivity ratio [3]: 24.2
inhibition (INH) [4]: Dose-Dependent Effect
IC50 [5]: 1.07 µM
Activity [6]: 2.1%
CI [7]: 0.08
Activity [8]: 1.2%
viability at 0.125 µM [9]: 86.3%
IC50 [10]: 1.17 µM
viability at 0.5 µM [11]: 70.3%
Activity [12]: 75.2%
Activity [13]: 15.5%
inhibition (INH) [14]: 220%
